# Experimental data reported in US11912670B1, “Ethyl 4-(5-(3-fluorophenyl)-4-phenyl-4H-1,2,4-triazol-3-ylthio)butanoate as an antimicrobial compound” (KING FAISAL UNIVERSITY, priority 2023, dated 2024).
# Legend:
# Format in all cases: cell-based
# [1] = tested on: Bacillus cereus; experiment: Agar plate disc-diffusion, antibacterial (gram positive); conditions: nutrient agar, 37° C., 48 hours, DMSO control zone subtracted
# Procedure: (§1) The agar plate disc-diffusion method was applied. […] The discs were then placed onto the surface of agar plates (nutrient agar for bacteria and Sabouraud's dextrose agar for fungi) seeded with the test organism. Each plate contained 15 mL of the agar medium, previously seeded with 0.2 mL of the broth culture of each organism pregrown for 18 hours. The plates were incubated at 37° C. for 48 hours, and 72 hours for fungi. The inhibition zones were measured in mm. Discs impregnated with DMSO were used as a control, and its inhibition zone was subtracted from the tested compound actual inhibition zone.
# [2] = tested on: Staphylococcus aureus; experiment: as above; conditions: nutrient agar, 37° C., 48 hours, DMSO control zone subtracted
# Procedure: as §1
# [3] = tested on: Escherichia coli; experiment: Agar plate disc-diffusion, antibacterial (gram negative); conditions: nutrient agar, 37° C., 48 hours, DMSO control zone subtracted
# Procedure: as §1
# [4] = tested on: Pseudomonas aeruginosa; experiment: as above; conditions: nutrient agar, 37° C., 48 hours, DMSO control zone subtracted
# Procedure: as §1
# [5] = tested on: Aspergillus flavus; experiment: Agar plate disc-diffusion, antifungal; conditions: Sabouraud's dextrose agar, 72 hours, DMSO control zone subtracted
# Procedure: as §1
# [6] = tested on: Chrysosporium keratinophilum; experiment: Agar plate disc-diffusion, antifungal; conditions: Sabouraud's dextrose agar, 72 hours, DMSO control zone subtracted
# Procedure: as §1
# [7] = A = concentration of comp. = 10,000 μL
# [8] = B = concentration of comp. = 30,000 μL
# [9] = C = concentration of comp. = 50,000 μL
structure (smiles),measurement,setting,value
"CCOC(=O)CCCSc1nnc(-c2cccc(F)c2)n1-c1ccccc1 [III, ethyl 4-(5-(3-fluorophenyl)-4-phenyl-4H-1,2,4-triazol-3-ylthio)butanoate]","inhibition zone, Bacillus Cereus, A",[1]; [7],27 mm
same,"inhibition zone, Bacillus Cereus, B",[1]; [8],29 mm
same,"inhibition zone, Bacillus Cereus, C",[1]; [9],40 mm
same,"inhibition zone, Staphylococcus aureus, A",[2]; [7],18 mm
same,"inhibition zone, Staphylococcus aureus, B",[2]; [8],25 mm
same,"inhibition zone, Staphylococcus aureus, C",[2]; [9],30 mm
same,"inhibition zone, Escherichia coli, A",[3]; [7],22 mm
same,"inhibition zone, Escherichia coli, B",[3]; [8],29 mm
same,"inhibition zone, Escherichia coli, C",[3]; [9],42 mm
same,"inhibition zone, Pseudomonas aeruginosa, A",[4]; [7],25 mm
same,"inhibition zone, Pseudomonas aeruginosa, B",[4]; [8],29 mm
same,"inhibition zone, Pseudomonas aeruginosa, C",[4]; [9],46 mm
same,"inhibition zone, Aspergillus flavus, A",[5]; [7],26 mm
same,"inhibition zone, Aspergillus flavus, B",[5]; [8],28 mm
same,"inhibition zone, Aspergillus flavus, C",[5]; [9],40 mm
same,"inhibition zone, Chrysosporium keratinophilum, A","[6]; A = concentration of comp. = 10,000 μg/mL",25 mm
same,"inhibition zone, Chrysosporium keratinophilum, B",[6]; [8],28 mm
same,"inhibition zone, Chrysosporium keratinophilum, C",[6]; [9],48 mm
